Results on one molecule are retold here after article PMC8834506, “Optimization of Thymidine Kinase-Based Safety Switch for Neural Cell Therapy” (Cells, 2022).

Like-named read-outs stand apart in the source and are kept apart here.

For series [1], the system named is ReNcells Ki67-SR39h (proliferating). As to the kind of experiment: ATP-based assay, EC50 and kinetics of cell death in proliferating neural progenitors. The conditions noted are these: for EC50: Homo sapiens, 96 h GCV exposure. The arrangement: species or system human. As to the method:
We then compared the ability of GCV to kill proliferating NPC that expressed the SR39h thymidine kinase under the control of the ubiquitin (ReNcells Ubi-SR39h) or the Ki67 promoter. (ReNcells Ki67-SR39h) (Figure 4). For this purpose, we first performed a dose response to GCV on undifferentiated NPC. […] We then explored the kinetic of cell death with the suicide enzyme driven either by Ki67 or ubiquitin promoter for different concentrations of GCV. The rapidity of cell death induction but not its final extent was a function of the GCV concentrations. […] This was true for a short-term treatment at 24 h and 48 h, but not at the later time points at 72 h and 96 h (Figure 4D).
Figure 4 EC50 and kinetics of GCV-induced cell death in proliferating and post-mitotic ReNcells. SR39h was expressed in ReNcells (immortalized neural precursor cells that can be differentiated to post-mitotic neurons) under the control of the two different promoters: Ki67 or ubiquitin. Wild type ReNcells were used as control. […] (B–D) Kinetics of cell death of SR39-expressing ReNcells cells either under the control of cycle promoter Ki67 or ubiquitin promoter with increasing GCV concentrations of 1, 10, and 100 µM. Cell viability was measured every 24 h using a bioluminescent ATP-based assay (n = 3). (E) ReNcells were differentiated toward post-mitotic neurons for 21 days then treated with GCV for 10 days. Cell viability was measured using an ATP-based assay. Results are mean + SD of three independent experiments performed in triplicates. (F) Immunostaining, Hoechst in blue and Beta III tubulin (βIII tub) in green, ReNcells were differentiated toward neurons for 21 days, then treated with 10 µM of GCV during 10 days. TEXT PRINTED IN THE PICTURE: (A) GCV: ReNcell wt: 1.2 x 10^-5; ReNcell Ki67-SR39h: 2.1 x 10^-9; ReNcell Ki67-SR39h: 2.1 x 10^-9 DOUBTS OF THE COPYIST ABOUT THIS PICTURE: Panel A table: the picture prints no measure or unit for the three values. The only printed substance label is the axis title 'GCV in M', and the table rows are cell lines, so they are written as targets of the values.
Cell culture plate (96 wells plate Corning #3907, Corning, Lonay, Switzerland) were pre-coated with 60 μL per well of Poly-L-ornithine solution (Sigma, Merk, Eysins, Switzerland) at 37 °C for 30 min. […] For EC50 assays, the medium was changed daily for 4 days, then cell viability was assessed using an ATP-based assay. EC50 values for each construct were calculated using a four parameters equation (GraphPad, Prism8, San Diego, CA, USA). […] Luminescence was measured using Spectra L384/L96 (0.2 sec exposure, Molecular devices, Biberach an der Riß, Germany).

For series [2] the following is noted: 10 mg/kg/day; cited from earlier work.

By EC50 is commonly meant the midpoint of the concentration-response curve. As for `Nc1nc(O)c2ncn(COC(CO)CO)c2n1` [GCV, ganciclovir], the “Cell death induction kinetics, Ki67-SR39h compared to Ubi-SR39h” value in series [1] (1 μM and 10 μM GCV, measured every 24 h) is recorded as “no significant differences”; in series [1] (100 μM GCV, at 24 h and 48 h, not at 72 h and 96 h), “slightly slower dynamic of cell death”. Also, the EC50 was 2.1 nM in series [1] (24-point dose response, n = 3, read-out: EC50 of GCV, ReNcell Ki67-SR39h) and roughly 2.1 nM in series [1] (undifferentiated NPC, read-out: EC50 of GCV). Besides, the “Side effects at the maximal recommended doses” value in series [2] is on record as “considerable side effects”.
